Entries after “also recorded” stand apart in the source; their conditions may differ.
Experiments:
VCAM-1 = test: TNF-α-activated cell surface expression of VCAM-1 in cell culture models; type: cell-based; conditions: read-out: IC50, inhibition of TNF-α-activated cell surface expression of VCAM-1
p3xCPRE/Luc [1] = test: p3xCPRE/Luc reporter, transient transfection in HMEC cells; type: cell-based, human
Protocol: (§1) In an effort to determine the utility of the CPRE-Luc reporter construct for the identification of small molecular weight compounds that activate the CPRE, the p3xCPRE/Luc reporter was transiently transfected into both HeLa and endothelial cells (HMECs). […] Similar results were obtained in HeLa cells with both t-BHQ and compound A (FIG. 12b).
(§2) HMECs and HeLa cells were transiently transfected with 1 μg of 3xCPRE-Luc and 0.1 μg of pRL-SV40. One day after transfection, cells were treated with t-BHQ or compound A. Luciferase activities were determined 16 hours after exposure to tBHQ. To generate stable HeLa cell lines that contain a stably-integrated copy of the CPRE-Luc gene, HeLa cells were transfected with p3xCPRE-Luc plus pcDNA-LacZ-Hyg (an expression vector containing the hygromycin drug resistance gene) using SuperFect transfection reagent. Two days after transfection, cells were cultured in hygromycin (400 μg/ml)-containing selection medium until individual colonies were identified. The colonies were expanded and the presence of CPRE-Luc-containing clones was examined by inducible luciferase activity. All experiments are an average of at least three independent determinations for each experimental sample.

[2] = tested on: murine model of allergen-induced peritonitis; test: Murine model of allergen-induced peritonitis (Type 1 hypersensitivity), eosinophil recruitment; type: in vivo, mouse
Protocol: To evaluate the anti-inflammatory potential of compound A, a murine model of Type 1 hypersensitivity was used. In this model mice are sensitized to ovalbumin and subsequently challenged with ovalbumin by intraperitoneal injection. This leads to eosinophil recruitment and accumulation in the peritoneal cavity 24-48 hours after the challenge.
6-8 week old Balb/c mice (weighing 20-30 g) were given subcutaneous injections of ovalbumin in alum (0.4 ml of 100 μg ovalbumin and 3.3 mg of Alum Inject) on days 0 and 7. The mice were challenged on day 14 with an intraperitoneal injection of ovalbumin (10 μg in 0.2 ml saline). The mice were sacrificed and peritoneal lavage fluid collected 48 hours after the challenge. The peritoneal fluid was concentrated and slide smears made using a cytospin centrifuge. Slides were stained with Diff-Quik and differential counts obtained by counting 300 cells. Compound A was administered by intravenous injection, in a vehicle composed of 95% Liposyn and 5% Tween 20, 4 or 1 hour prior to challenge. Compound A was compared to dexamethosone administered orally at a dose of 2.5 mg/kg/d.
In a common allergic inflammation, balb/C mice were divided into two groups: control/vehicle and Compound G treated. They were then sensitized to ovalbumin on days 0 and 7 with a subcutaneous injection of ovalbumin absorbed in aluminum hydroxide. The treated group was dosed i.v. 50 mg/kg in liposyn/tween and vehicle one day prior to challenge. The mice were then challenged with an intraperitoneal injection of ovalbumin on day 14 and sacrificed 48 hrs post-challenge. Peritoneal fluid was collected and spun down onto slides. Slides were stained with DiffQuik and a differential performed.

p3xCPRE/Luc [3] = test: p3xCPRE/Luc reporter, transient transfection in HeLa cells; type: cell-based, human
Protocol: HMEC cells (passage 20) and HeLa cells were seeded into 6 well plates and were grown to approximately 60-70% confluency. Cells were transfected with 2 μg (HeLa) or 1 μg (HMEC) each of p3xCPRE/Luc reporter and Nrf-2 expression vector (an expression vector containing the full-length murine Nrf-2 gene under the control of the CMV promoter (Asakura & Karino (1990) Circ Res, 66:1045-1066). Cells were cultured for an additional 48 hours, and luciferase activity was determined (Promega). An average of at least three independent determinations were made for each experimental sample. Results are expressed as ratio of firefly/renilla luciferase.
as §1, §2

[4] = tested on: methylated BSA-induced model of delayed type hypersensitivity; test: Mouse delayed type hypersensitivity model (methylated BSA), paw swelling; type: in vivo; conditions: Compound A 100 mg/kg intraperitoneal at -24, -1 and +6 hrs from challenge; paw weight 24 hours later
Protocol: Balb/C mice were divided into two groups: control/vehicle and treated. They were sensitized intradermally on day 0 with methylated BSA (metBSA), and then challenged with metBSA on day 7 in the right hind paw. Compound A was administered at a dose of 100 mg/kg to the treated group by intraperitoneal injection −24, −1 and +6 hrs from the time of challenge. All animals were sacrificed 24 hours later and the left and right hind paws weighed. The left hind paw weight was subtracted from the right hind paw to give the paw weight increase.

[5] = tested on: murine model of aerosolized ovalbumin-induced asthma; test: Mouse asthma model, airway eosinophilia and hyperreactivity; type: in vivo
Protocol: Male BALB-C mice, 6 weeks of age, were randomly assigned to one of following groups: ova/ova, vehicle control, dexamethasone (3 mg/kg) treatment, and Compound A. Animals were weighed on day 0, 7, 12 and 14 and were given access to food and water ad libidum. Mice were sensitized intraperitoneally with 8 μg of ovalbumin and 1 mg of aluminum hydroxide on Day 0 and Day 5. The animals were exposed to aerosolized ovalbumin (0.5%) twice on Day 12 (1 hr & 10 minutes per exposure). The ovalbumin exposures were separated by at least 4 hours. Differentials were performed on bronchoaveolar lavage fluid on Day 14 to determine % eosinophils. Compound A was orally administered daily at a dose of 300 mg/kg from time of sensitization to termination of study to the Compound A group.

CPRE promoter = test: Stable HeLa cell line with stably-integrated CPRE-Luc gene; type: cell-based, human
Protocol: Although transient transfection methods are useful for understanding molecular mechanisms of gene expression and cellular biology, they are not suitable for high-throughput screening of libraries of compounds. Therefore, a stable HeLa cell line was generated that contains a stably-integrated copy of the CPRE-Luc gene.
as §2

p3xCPRE/Luc [6] = test: Activation of p3xCPRE/Luc by small molecular weight organic compounds (Table 6); type: cell-based, human; conditions: luciferase activity 16 hours after exposure
Protocol: In the in vitro assay system described above, a stable HeLa cell line was generated that contains a stably-integrated copy of the CPRE-Luc gene.
as §2, with “the compounds listed in Table 6” for “t-BHQ or compound A.”, “the compounds.” for “tBHQ.”, “SuperFeet” for “SuperFect”, “All experiments are an average of at least three independent determinations for each experimental sample.” left out

COc1cc(OC)c(-c2cc3ccccc3s2)cc1/C=C/C(=O)c1cc(OC)c(OC)c(OC)c1 [Compound A, 3-(5-Benzo-[b]-thiophene-2-yl-2,4-dimethoxy-phenyl)-1-(3,4,5-trimethoxy-phenyl)propenone]
IC50 (VCAM-1): ~1.4 µM | p3xCPRE/Luc activity (induction of transcription from the CPRE) (p3xCPRE/Luc [1]; Compound A 10 μM): greater than two-fold; also recorded: significantly increased | Eosinophil levels in peritoneal fluid (percent eosinophils) ([2]; Compound A 50 mg/kg/d intravenous, 1 or 4 hours prior to ovalbumin challenge): significantly decreased | Eosinophil levels in peritoneal fluid (percent eosinophils) ([2]; Compound A 50 mg/kg/d intravenous, 1 or 4 hours prior to ovalbumin challenge, listed as compound A): significantly significant reduction | p3xCPRE/Luc activity (p3xCPRE/Luc [3]; Compound A 10 μM): significantly increased | p3xCPRE/Luc activity (p3xCPRE/Luc [3]; compound A 15 μM (FIG. 9c)): significantly increased | p3xCPRE/Luc activity, concentration-response (p3xCPRE/Luc [3]; transient transfection, 5, 10 and 20 μM (FIG. 13)): dose-dependent response; also recorded: significantly increased | Inhibition of paw swelling compared with the vehicle controls [4]: 79% | Inhibition of eosinophilia in bronchoaveolar lavage fluid compared with vehicle controls ([5]; Compound A 300 mg/kg oral daily, Day 14, p<0.05): 48% | Eosinophil levels in bronchoaveolar lavage fluid ([5]; Compound A 300 mg/kg/d oral): significantly decreased | Lung function (airway hyperreactivity to methacholine) ([5]; Compound A 300 mg/kg/d oral, 300 mg/kg/day): significantly improved lung function | CPRE/Luc activity, percent increase over control (vehicle) levels, concentration-response (CPRE promoter; Hela cells, 1.25, 2.5, 5, 10, 20 and 40 μM (FIG. 14)): significantly elevated in a concentration-dependent manner | Concentration of maximum activation of the CPRE promoter (CPRE promoter; stable HeLa cell line (FIG. 14)): approximately 20 μM | CPRE Activity: concentration to achieve a two-fold induction of CPRE activity over control (p3xCPRE/Luc [6]): 4.5 µM

COc1cc(/C=C/C(=O)c2ccc(OC)c(OC)c2OC)cc(-c2cccs2)c1OC [Compound G, 3-(3,4-Dimethoxy-5-thiophen-2-ylphenyl)-1-(2,3,4-trimethoxy-phenyl)propenone]
Inhibition of eosinophilia compared with vehicle controls ([2]; Compound G 50 mg/kg i.v., peritoneal fluid 48 hrs post-challenge): 39% | Eosinophil levels in peritoneal fluid (percent eosinophils) ([2]; Compound G 50 mg/kg/d intravenous): significantly decreased | CPRE Activity: concentration to achieve a two-fold induction of CPRE activity over control (p3xCPRE/Luc [6]): 3 µM

COc1cc(OCC(=O)[O-])c(/C=C/C(=O)c2cc(OC)c(OC)c(OC)c2)cc1-c1cc2ccccc2s1.[Na+] [R, Sodium {4-benzo[b]thiophene-2-yl-5-methoxy-2-[3-oxo-3-(3,4,5-trimethoxyphenyl)-propenyl]phenoxy}-acetate]
CPRE Activity: concentration to achieve a two-fold induction of CPRE activity over control (p3xCPRE/Luc [6]): 14 µM

CC(C)(C)c1cc(O)ccc1O [t-BHQ, reference compound]
p3xCPRE/Luc activity (p3xCPRE/Luc [1]; t-BHQ 20 μM): induced CPRE-dependent gene expression; also recorded: significantly increased | p3xCPRE/Luc activity (p3xCPRE/Luc [3]; t-BHQ 25 μM): significantly increased
